Test results published in PMC8286840, “Identifying SARS-CoV-2 antiviral compounds by screening for small molecule inhibitors of Nsp3 papain-like protease” (Biochemical Journal, 2021).
Structures can show the parent of a compound that is named as a salt. Where two headings read alike, the source gives them in different places.

Columns and labels:
[1] = biological target: T1, SARS-CoV-2 PLpro (nsp3 1564–1878) (Severe acute respiratory syndrome coronavirus 2, UniProt P0DTD1); assay: biochemical; set-up: FRET-quenched peptide (Pro3) cleavage by PLpro, 10 min pre-incubation, slope over 20 min, normalised to no-compound control; details: low concentration screen, read-out: % of control remaining
[2] = biological target: T1, SARS-CoV-2 PLpro (nsp3 1564–1878); assay: biochemical; set-up: FRET-quenched peptide (Pro3) cleavage by PLpro, 10 min pre-incubation, slope over 20 min, normalised to no-compound control; details: high concentration screen, read-out: % of control remaining

Structure (SMILES): C[N+](C)(C)CC(O)CC(=O)[O-] (racemic)
- remaining activity at 1.25 µM ([1]; Well no.=3402): 88.4%
- remaining activity at 3.75 µM ([2]; Well no.=3402): 86.6%

Structure (SMILES): CN(C)CC/C=C1/c2ccccc2Sc2ccc(Cl)cc21 [Chlorprothixene hydrochloride]
- remaining activity at 1.25 µM ([1]; Well no.=45): 89.3%
- remaining activity at 3.75 µM ([2]; Well no.=45): 90.5%

Structure (SMILES): CN(C)/N=N/c1[nH]cnc1C(N)=O [Dacarbazine]
- remaining activity at 1.25 µM ([1]; Well no.=1940): 103%
- remaining activity at 3.75 µM ([2]; Well no.=1940): 99.4%

Structure (SMILES): CNCCC(Oc1ccc(C(F)(F)F)cc1)c1ccccc1 (stereo not shown) [Fluoxetine]
- remaining activity at 1.25 µM ([1]; Well no.=2102): 96.6%
- remaining activity at 3.75 µM ([2]; Well no.=2102): 98.8%

Structure (SMILES): COC(=O)C1=C(C)NC(C)=C(C(=O)OCC(C)C)C1c1ccccc1[N+](=O)[O-] (stereo not shown) [Nisoldipine]
- remaining activity at 1.25 µM ([1]; Well no.=1796): 100%
- remaining activity at 3.75 µM ([2]; Well no.=1796): 100%

Structure (SMILES): CN(C)C(=O)Oc1cc(OC(=O)N(C)C)cc(C(O)CNC(C)(C)C)c1 (stereo not shown) [Bambuterol (hydrochloride)]
- remaining activity at 1.25 µM ([1]; Well no.=6617): 100%
- remaining activity at 3.75 µM ([2]; Well no.=6617): 101%

Structure (SMILES): CC(C)[C@@]1(NC(=O)[C@@H]2C[C@@H]3c4cccc5[nH]cc(c45)C[C@H]3N(C)C2)O[C@@]2(O)[C@@H]3CCCN3C(=O)[C@H](Cc3ccccc3)N2C1=O [Dihydroergocristine mesylate]
- remaining activity at 1.25 µM ([1]; Well no.=3231): 108%
- remaining activity at 3.75 µM ([2]; Well no.=3231): 105%

Structure (SMILES): CC(C)Cc1ccc(C(C)C(=O)O)cc1 (racemic)
- remaining activity at 1.25 µM ([1]; Well no.=1011): 100%
- remaining activity at 3.75 µM ([2]; Well no.=1011): 99.6%

Structure (SMILES): CC(=O)O[C@]1(C(C)=O)CC[C@H]2[C@@H]3C=C(C)C4=CC(=O)CC[C@]4(C)[C@H]3CC[C@@]21C [Megestrol Acetate]
- remaining activity at 1.25 µM ([1]; Well no.=2236): 95%
- remaining activity at 3.75 µM ([2]; Well no.=2236): 93.2%

Structure (SMILES): CC[C@]1(O)C[C@@H]2CN(CCc3c([nH]c4ccccc34)[C@@](C(=O)OC)(c3cc4c(cc3OC)N(C)[C@H]3[C@@](O)(C(N)=O)[C@H](O)[C@]5(CC)C=CCN6CC[C@]43[C@@H]65)C2)C1 [Vindesine sulfate]
- remaining activity at 1.25 µM ([1]; Well no.=2031): 102%
- remaining activity at 3.75 µM ([2]; Well no.=2031): 103%

Structure (SMILES): C[C@@H]1O[C@@H](O[C@H]2[C@H](Oc3cc(O)c4c(c3)O[C@H](c3ccc(O)cc3)CC4=O)O[C@H](CO)[C@@H](O)[C@@H]2O)[C@H](O)[C@H](O)[C@H]1O [Naringin]
- remaining activity at 1.25 µM ([1]; Well no.=3665): 98.4%
- remaining activity at 1.25 µM ([1]; Well no.=8098): 97.4%
- remaining activity at 3.75 µM ([2]; Well no.=3665): 99.9%
- remaining activity at 3.75 µM ([2]; Well no.=8098): 97.5%

Structure (SMILES): COC(=O)Nc1nc2cc([S+]([O-])c3ccccc3)ccc2[nH]1 (stereo not shown) [Oxfendazole]
- remaining activity at 1.25 µM ([1]; Well no.=2059): 105%
- remaining activity at 3.75 µM ([2]; Well no.=2059): 105%

Structure (SMILES): CC(=O)OCC1=C[C@H]2[C@@H]3C(C)(C)[C@]3(OC(=O)Cc3ccccc3)C[C@@H](C)[C@]2(O)[C@@H]2C=C(C)C(=O)[C@@]2(O)C1 [12-Deoxyphorbol 13-phenylacetate 20-acetate]
- remaining activity at 1.25 µM ([1]; Well no.=3229): 107%
- remaining activity at 3.75 µM ([2]; Well no.=3229): 105%

Structure (SMILES): Cc1cc(/C(O)=C2\C(=O)C(=O)N(CCCN3CCOCC3)C2c2ccncc2)ccc1OCc1ccccc1 (stereo not shown) [SBC-115076]
- remaining activity at 1.25 µM ([1]; Well no.=7844): 101%
- remaining activity at 3.75 µM ([2]; Well no.=7844): 95.8%

Structure (SMILES): COC(=O)C1=C(C#N)NC(C)=C(C(=O)OC(C)C)C1c1cccc([N+](=O)[O-])c1 (stereo not shown) [5-isopropyl 3-methyl 2-cyano-6-methyl-4-(3-nitrophenyl)-1,4-dihydro-3,5-pyridinedicarboxylate]
- remaining activity at 1.25 µM ([1]; Well no.=6056): 94%
- remaining activity at 3.75 µM ([2]; Well no.=6056): 89.3%

Structure (SMILES): CCS(=O)(=O)Nc1ccc2c(c1)/C(=C(/Nc1ccc(CN3CCCCC3)cc1)c1ccccc1)C(=O)N2 [Hesperadin]
- remaining activity at 1.25 µM ([1]; Well no.=5262): 99.1%
- remaining activity at 3.75 µM ([2]; Well no.=5262): 88.4%

Structure (SMILES): Cc1cnc(NC(=O)C2=C(O)c3ccccc3S(=O)(=O)N2C)s1 [Meloxicam]
- remaining activity at 1.25 µM ([1]; Well no.=1578): 94.4%
- remaining activity at 3.75 µM ([2]; Well no.=1578): 96.6%

Structure (SMILES): C=CCN1CCc2c(cc(O)c(O)c2Br)[C@@H](c2ccccc2)C1 [R(+)-6-Bromo-APB hydrobromide]
- remaining activity at 1.25 µM ([1]; Well no.=277): 98.1%
- remaining activity at 3.75 µM ([2]; Well no.=277): 97.4%

Structure (SMILES): CCOc1ccc2c(c1)C(C)=CC(C)(C)N2 [Ethoxyquin]
- remaining activity at 1.25 µM ([1]; Well no.=4145): 93.7%
- remaining activity at 3.75 µM ([2]; Well no.=4145): 96.9%
